Test results: ChEMBL document CHEMBL1157215, “Isolation and structural modification of 7-deoxynarciclasine and 7-deoxy-trans-dihydronarciclasine” (2006)
Values after ≈ are worked out from the molar mass of the structure shown.

Legend:
Type in all cases: functional
BXPC-3 = experiment: Growth inhibition of human BXPC3 cells
[1] = Growth inhibition of human SF269 cells
NCI-H460 = experiment: Growth inhibition of human NCI-H460 cells
DU-145 = experiment: Growth inhibition of human DU145 cells
P388 = experiment: Growth inhibition of mouse P388 cells; conditions: for EC50: read-out: ED50 (the source's name)
KM-20L2 = experiment: Growth inhibition of human KM20L2 cells
MCF7 = experiment: Growth inhibition of human MCF7 cells

| GI50 (P388) | SMILES | GI (BXPC-3) | GI50 [1] | GI50 (NCI-H460) | GI50 (DU-145) | EC50 (P388) | GI50 (KM-20L2) | GI50 (MCF7) |
| --- | --- | --- | --- | --- | --- | --- | --- | --- |
| – | O=C1N[C@H]2[C@H](O)[C@H](O)[C@@H](O)C[C@@H]2c2cc3c(cc21)OCO3 | 0.036 µg/mL | 0.03 µg/mL (≈ 0.102 µM) | 0.037 µg/mL (≈ 0.126 µM) | 0.025 µg/mL (≈ 0.0852 µM) | < 0.01 µg/mL | 0.028 µg/mL (≈ 0.0955 µM) | 0.03 µg/mL (≈ 0.102 µM) |
| – | O=C1N[C@@H]2C(=C[C@H](O)[C@@H](O)[C@H]2O)c2cc3c(cc21)OCO3 | 0.12 µg/mL | 0.047 µg/mL (≈ 0.161 µM) | 0.11 µg/mL (≈ 0.378 µM) | 0.062 µg/mL (≈ 0.213 µM) | < 0.01 µg/mL | 0.15 µg/mL (≈ 0.515 µM) | 0.093 µg/mL (≈ 0.319 µM) |
| – | Cl.O[C@@H]1[C@H](O)[C@@H](O)C[C@@H]2c3cc4c(cc3CN[C@@H]12)OCO4 | 1.4 µg/mL | 1.6 µg/mL | 0.78 µg/mL | 0.71 µg/mL | 3.3 µg/mL | 1.7 µg/mL | 1.7 µg/mL |
| – | O[C@@H]1[C@H](O)[C@@H](O)C[C@@H]2c3cc4c(cc3CN[C@@H]12)OCO4 | >10 µg/mL | > 10 µg/mL | 7.5 µg/mL (≈ 26.9 µM) | 4.4 µg/mL (≈ 15.8 µM) | 0.43 µg/mL (≈ 1.54 µM) | > 10 µg/mL | > 10 µg/mL |
| – | Cl.O[C@@H]1[C@H](O)[C@@H](O)C=C2c3cc4c(cc3CN[C@H]21)OCO4 | 4.4 µg/mL | 2.9 µg/mL | 3.4 µg/mL | 3.2 µg/mL | 7.1 µg/mL | > 10 µg/mL | 3.4 µg/mL |
| > 10 µg/mL | CC1(C)O[C@@H]2[C@H](O1)[C@@H](O)C=C1c3cc4c(cc3C(=O)N[C@H]12)OCO4 | – | – | – | – | – | – | – |
| > 10 µg/mL | CC1(C)O[C@@H]2[C@H](O1)[C@@H](O[Si](C)(C)C(C)(C)C)C=C1c3cc4c(cc3C(=O)N[C@H]12)OCO4 | – | – | – | – | – | – | – |
| > 10 µg/mL | CC1(C)O[C@H]2[C@@H]3NC(=O)c4cc5c(cc4[C@H]3C[C@H](O)[C@H]2O1)OCO5 | – | – | – | – | – | – | – |
| – | CC(=O)O[C@H]1[C@@H]2NC(=O)c3cc4c(cc3[C@H]2C[C@H](OC(C)=O)[C@H]1OC(C)=O)OCO4 | 0.69 µg/mL | 0.3 µg/mL (≈ 0.715 µM) | 1.5 µg/mL (≈ 3.58 µM) | 0.46 µg/mL (≈ 1.1 µM) | 1.61 µg/mL (≈ 3.84 µM) | 0.66 µg/mL (≈ 1.57 µM) | 0.46 µg/mL (≈ 1.1 µM) |
| > 10 µg/mL | CC1(C)O[C@@H]2[C@H](O1)[C@@H](O)C=C1c3cc4c(cc3CN[C@H]12)OCO4 | – | – | – | – | – | – | – |
| > 10 µg/mL | CC1(C)O[C@H]2[C@@H]3NCc4cc5c(cc4[C@H]3C[C@H](O[Si](C)(C)C(C)(C)C)[C@H]2O1)OCO5 | – | – | – | – | – | – | – |
| > 10 µg/mL | CC1(C)O[C@H]2[C@@H]3NC(=O)c4cc5c(cc4[C@H]3C[C@H](O[Si](C)(C)C(C)(C)C)[C@H]2O1)OCO5 | – | – | – | – | – | – | – |
| – | CC(=O)O[C@H]1C=C2c3cc4c(cc3C(=O)N[C@H]2[C@H](O)[C@@H]1O)OCO4 | 0.26 µg/mL | 0.19 µg/mL (≈ 0.57 µM) | 0.32 µg/mL (≈ 0.96 µM) | 0.26 µg/mL (≈ 0.78 µM) | < 0.01 µg/mL | 0.18 µg/mL (≈ 0.54 µM) | 0.24 µg/mL (≈ 0.72 µM) |
| > 10 µg/mL | CC1(C)O[C@H]2[C@@H]3NCc4cc5c(cc4[C@H]3C[C@H](O)[C@H]2O1)OCO5 | – | – | – | – | – | – | – |
| > 10 µg/mL | CC(=O)O[C@H]1C=C2c3cc4c(cc3C(=O)N[C@H]2[C@@H]2OC(C)(C)O[C@@H]21)OCO4 | – | – | – | – | – | – | – |
| > 10 µg/mL | CC1(C)O[C@@H]2[C@H](O1)[C@@H](O[Si](C)(C)C(C)(C)C)C=C1c3cc4c(cc3CN[C@H]12)OCO4 | – | – | – | – | – | – | – |
| – | CC(=O)O[C@@H]1[C@H](OC(C)=O)[C@@H](OC(C)=O)C=C2c3cc4c(cc3C(=O)N[C@H]21)OCO4 [LYCORICIDINE TRIACETATE] | 0.2 µg/mL | 0.15 µg/mL | 1.2 µg/mL | 0.48 µg/mL | 0.158 µg/mL | 0.18 µg/mL | 0.59 µg/mL |
| – | O=C1N[C@@H]2C(=C[C@H](O)[C@@H](O)[C@H]2O)c2cc3c(c(O)c21)OCO3 [NARCICLASINE] | 0.026 µg/mL | 0.021 µg/mL (≈ 0.0683 µM) | 0.032 µg/mL (≈ 0.104 µM) | 0.011 µg/mL (≈ 0.0358 µM) | 0.002 µg/mL (≈ 0.00651 µM) | 0.21 µg/mL (≈ 0.683 µM) | 0.019 µg/mL (≈ 0.0618 µM) |
| – | O=C1N[C@H]2[C@H](O)[C@H](O)[C@@H](O)[C@H](O)[C@@H]2c2cc3c(c(O)c21)OCO3 [PANCRATISTATIN] | 0.028 µg/mL | 0.017 µg/mL (≈ 0.0523 µM) | 0.048 µg/mL (≈ 0.148 µM) | 0.016 µg/mL (≈ 0.0492 µM) | 0.039 µg/mL (≈ 0.12 µM) | 0.026 µg/mL (≈ 0.0799 µM) | 0.032 µg/mL (≈ 0.0984 µM) |
